Experimental data from patent publication US20230165873A1, “Methods of Use for Single Molecule Compounds Providing Multi-Target Inhibition to Treat Covid 19” (priority 2020, published 2023).

How the values were obtained:
BRD4-1 = molecular target: T1, BRD4-1 (Homo sapiens, UniProt O60885); test: BRD4-1 in vitro inhibition; type: binding
T1 construct: BRD4-1
Method: (§1) The kinase or bromodomain inhibitory activity of a compound of the invention can be determined by routine methods known to the skilled artisan without undue experimentation, or by procuring relevant analysis by a commercial vendor offering such services. […] In vivo, PI3K inhibition can be determined from target tissue biopsies by standard tissue processing in which cells are disrupted and Western Blot analysis is performed to determine the presence or absence of pAKT (substrate of PI3K) relative to a control sample. PI3K inhibition assays and BTK inhibition assays are known in the art and can be procured commercially through vendors such as Reaction Biology (Malvern, PA). The activity of a compound of the invention as an inhibitor of a bromodomain-containing protein, such as a BET protein, including BRD2, BRD3, BRD4, and/or BRDT, or an isoform or mutant thereof, may be determined in vitro, in vivo, or in a cell line. In vitro assays include assays that determine inhibition of bromodomain-containing proteins. Alternatively, inhibitor binding may be determined by running a competition experiment where a provided compound is incubated with a bromodomain-containing protein, such as a BET protein bound to known ligands, labeled or unlabeled. In vitro bromodomain inhibition assays can be performed using Alpha Screen Technology (Perkin Elmer Life and Analytical Sciences, Shelton, CT). In vivo bromodomain inhibition can be determined indirectly by evaluating the amount of a protein whose gene transcription is influenced or controlled by the bromodomain protein, for example, MYCN protein transcription is controlled by BRD4 (J.E. Delmore et al., Cell 2011, 146, 904-917; A. Puissant, Cancer Discov. 2013, 3, 308-323).

BRD4-2 = molecular target: T2, BRD4-2 (Homo sapiens, UniProt O60885); test: BRD4-2 in vitro inhibition; type: binding
T2 construct: BRD4-2
Method: as §1

PI3K alpha = PI3K alpha (Homo sapiens, UniProt P42336); test: PI3K alpha in vitro inhibition; type: biochemical
Method: as §1

PI3K beta = PI3K beta (Homo sapiens, UniProt P42338); test: PI3K beta in vitro inhibition; type: biochemical
Method: as §1

PI3K gamma = PI3K gamma (Homo sapiens, UniProt P48736); test: PI3K gamma in vitro inhibition; type: biochemical; details: read-out: IC50 inhibition PI3K gamma
Method: as §1
(§2) IC50 inhibition data against the indicated targets were determined for compounds of the invention using standard in vitro assays (Tables 8 and 9).

CDK4 cyclinD1 = CDK4 cyclinD1 (Homo sapiens, UniProt P11802); test: CDK4 cyclinD1 in vitro inhibition; type: biochemical
Method: as §1, §2

CDK6 cyclinD1 = CDK6 cyclinD1 (Homo sapiens, UniProt Q00534); test: CDK6 cyclinD1 in vitro inhibition; type: biochemical
Method: as §1, §2

BTK C481S = BTK C481S (Homo sapiens, UniProt Q06187, C481S); test: BTK C481S in vitro inhibition; type: biochemical
Method: as §1, §2

BTK = BTK (Homo sapiens, UniProt Q06187); test: BTK in vitro inhibition; type: biochemical
Method: as §1, §2

Sequence of CDK4 cyclinD1 (P11802 whole entry): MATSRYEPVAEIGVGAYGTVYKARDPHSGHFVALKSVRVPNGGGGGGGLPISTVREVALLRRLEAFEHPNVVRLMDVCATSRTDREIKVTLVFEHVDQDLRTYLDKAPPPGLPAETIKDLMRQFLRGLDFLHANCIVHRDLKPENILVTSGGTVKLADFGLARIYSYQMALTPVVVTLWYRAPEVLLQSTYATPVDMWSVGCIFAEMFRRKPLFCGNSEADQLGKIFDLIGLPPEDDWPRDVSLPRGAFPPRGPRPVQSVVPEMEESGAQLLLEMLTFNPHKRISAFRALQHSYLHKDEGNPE
Sequence of CDK4 cyclinD1 (P24385 whole entry partner): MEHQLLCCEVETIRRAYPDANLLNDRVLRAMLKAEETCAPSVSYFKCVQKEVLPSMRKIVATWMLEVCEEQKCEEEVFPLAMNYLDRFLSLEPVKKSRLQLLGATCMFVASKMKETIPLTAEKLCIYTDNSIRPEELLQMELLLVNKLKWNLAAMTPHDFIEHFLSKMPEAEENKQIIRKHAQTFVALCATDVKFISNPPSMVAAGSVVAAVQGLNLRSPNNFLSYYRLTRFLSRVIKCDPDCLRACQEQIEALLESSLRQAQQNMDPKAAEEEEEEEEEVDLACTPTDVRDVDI
Sequence of BTK C481S (Q06187 whole entry C481S): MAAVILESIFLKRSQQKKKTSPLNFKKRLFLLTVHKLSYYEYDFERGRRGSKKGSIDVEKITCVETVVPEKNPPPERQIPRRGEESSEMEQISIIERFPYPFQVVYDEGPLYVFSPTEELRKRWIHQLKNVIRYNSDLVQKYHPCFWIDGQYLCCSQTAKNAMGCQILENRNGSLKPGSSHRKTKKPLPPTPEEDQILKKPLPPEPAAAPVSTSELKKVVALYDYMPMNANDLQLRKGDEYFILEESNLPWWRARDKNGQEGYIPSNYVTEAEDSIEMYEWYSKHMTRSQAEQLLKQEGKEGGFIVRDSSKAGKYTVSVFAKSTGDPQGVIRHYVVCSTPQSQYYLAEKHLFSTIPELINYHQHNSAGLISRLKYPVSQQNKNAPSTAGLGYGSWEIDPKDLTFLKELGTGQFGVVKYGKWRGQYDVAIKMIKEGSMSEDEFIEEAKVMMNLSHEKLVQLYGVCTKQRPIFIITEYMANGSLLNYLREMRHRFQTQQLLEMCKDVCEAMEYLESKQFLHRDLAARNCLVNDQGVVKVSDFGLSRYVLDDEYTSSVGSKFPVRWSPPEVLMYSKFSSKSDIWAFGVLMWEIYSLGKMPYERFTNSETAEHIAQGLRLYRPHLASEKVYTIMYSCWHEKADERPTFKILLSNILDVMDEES
Sequence of CDK6 cyclinD1 (Q00534 whole entry): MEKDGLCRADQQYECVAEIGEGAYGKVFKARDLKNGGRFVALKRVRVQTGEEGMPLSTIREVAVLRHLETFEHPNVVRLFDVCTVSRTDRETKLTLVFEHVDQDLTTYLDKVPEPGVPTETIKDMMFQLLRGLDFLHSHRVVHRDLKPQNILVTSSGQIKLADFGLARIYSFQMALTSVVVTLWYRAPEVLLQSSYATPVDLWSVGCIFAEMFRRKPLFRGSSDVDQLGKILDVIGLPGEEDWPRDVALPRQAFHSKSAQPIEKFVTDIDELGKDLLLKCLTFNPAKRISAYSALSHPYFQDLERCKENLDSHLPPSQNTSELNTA
Sequence of CDK6 cyclinD1 (P24385 whole entry partner): as the sequence (P24385 whole entry partner) above
Sequence of PI3K alpha (P42336 whole entry): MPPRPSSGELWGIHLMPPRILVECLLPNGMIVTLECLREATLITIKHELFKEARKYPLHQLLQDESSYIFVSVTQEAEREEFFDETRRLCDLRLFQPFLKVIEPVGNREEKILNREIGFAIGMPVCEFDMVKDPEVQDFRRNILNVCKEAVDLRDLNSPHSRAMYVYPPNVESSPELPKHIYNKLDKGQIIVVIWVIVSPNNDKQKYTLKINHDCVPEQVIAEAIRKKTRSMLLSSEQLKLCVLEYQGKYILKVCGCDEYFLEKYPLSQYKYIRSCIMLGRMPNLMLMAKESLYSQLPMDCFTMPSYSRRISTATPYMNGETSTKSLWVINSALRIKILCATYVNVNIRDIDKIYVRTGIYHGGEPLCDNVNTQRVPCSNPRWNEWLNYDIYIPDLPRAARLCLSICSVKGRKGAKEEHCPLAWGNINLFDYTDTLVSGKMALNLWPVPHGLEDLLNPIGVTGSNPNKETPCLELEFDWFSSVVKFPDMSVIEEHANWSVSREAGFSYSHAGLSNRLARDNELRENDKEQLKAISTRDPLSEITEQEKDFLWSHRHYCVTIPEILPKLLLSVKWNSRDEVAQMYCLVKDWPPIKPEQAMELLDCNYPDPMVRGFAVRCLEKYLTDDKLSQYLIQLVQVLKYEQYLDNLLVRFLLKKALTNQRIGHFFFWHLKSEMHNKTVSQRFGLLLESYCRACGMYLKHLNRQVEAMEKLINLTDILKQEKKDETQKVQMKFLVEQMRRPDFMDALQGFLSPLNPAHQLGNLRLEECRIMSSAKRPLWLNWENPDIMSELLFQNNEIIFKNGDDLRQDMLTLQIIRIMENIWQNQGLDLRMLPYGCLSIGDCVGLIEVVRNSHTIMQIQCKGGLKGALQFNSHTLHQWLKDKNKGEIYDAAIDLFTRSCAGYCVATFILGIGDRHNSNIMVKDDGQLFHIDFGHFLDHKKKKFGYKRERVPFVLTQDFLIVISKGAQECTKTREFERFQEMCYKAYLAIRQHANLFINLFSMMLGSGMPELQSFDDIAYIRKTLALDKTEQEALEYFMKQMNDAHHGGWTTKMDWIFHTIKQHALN
Sequence of PI3K alpha (P27986 whole entry partner): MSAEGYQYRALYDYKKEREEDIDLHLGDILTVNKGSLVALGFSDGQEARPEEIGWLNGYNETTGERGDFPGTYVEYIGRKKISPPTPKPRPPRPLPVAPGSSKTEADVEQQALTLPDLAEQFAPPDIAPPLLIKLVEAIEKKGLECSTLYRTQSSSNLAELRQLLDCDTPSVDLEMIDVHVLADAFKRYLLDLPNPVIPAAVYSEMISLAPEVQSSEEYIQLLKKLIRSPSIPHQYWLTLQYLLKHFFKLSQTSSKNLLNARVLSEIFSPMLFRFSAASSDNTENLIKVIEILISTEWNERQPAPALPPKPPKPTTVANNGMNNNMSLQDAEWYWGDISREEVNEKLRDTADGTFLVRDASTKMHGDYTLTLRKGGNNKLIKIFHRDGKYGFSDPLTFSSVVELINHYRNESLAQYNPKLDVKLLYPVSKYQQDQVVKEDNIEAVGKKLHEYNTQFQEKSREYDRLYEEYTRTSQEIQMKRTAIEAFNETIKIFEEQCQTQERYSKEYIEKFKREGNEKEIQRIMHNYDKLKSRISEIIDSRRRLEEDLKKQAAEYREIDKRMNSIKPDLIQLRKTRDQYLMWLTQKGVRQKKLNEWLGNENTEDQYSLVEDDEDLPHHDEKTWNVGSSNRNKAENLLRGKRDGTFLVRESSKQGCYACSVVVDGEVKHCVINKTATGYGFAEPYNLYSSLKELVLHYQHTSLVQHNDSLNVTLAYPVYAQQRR
Sequence of PI3K gamma (P48736 whole entry): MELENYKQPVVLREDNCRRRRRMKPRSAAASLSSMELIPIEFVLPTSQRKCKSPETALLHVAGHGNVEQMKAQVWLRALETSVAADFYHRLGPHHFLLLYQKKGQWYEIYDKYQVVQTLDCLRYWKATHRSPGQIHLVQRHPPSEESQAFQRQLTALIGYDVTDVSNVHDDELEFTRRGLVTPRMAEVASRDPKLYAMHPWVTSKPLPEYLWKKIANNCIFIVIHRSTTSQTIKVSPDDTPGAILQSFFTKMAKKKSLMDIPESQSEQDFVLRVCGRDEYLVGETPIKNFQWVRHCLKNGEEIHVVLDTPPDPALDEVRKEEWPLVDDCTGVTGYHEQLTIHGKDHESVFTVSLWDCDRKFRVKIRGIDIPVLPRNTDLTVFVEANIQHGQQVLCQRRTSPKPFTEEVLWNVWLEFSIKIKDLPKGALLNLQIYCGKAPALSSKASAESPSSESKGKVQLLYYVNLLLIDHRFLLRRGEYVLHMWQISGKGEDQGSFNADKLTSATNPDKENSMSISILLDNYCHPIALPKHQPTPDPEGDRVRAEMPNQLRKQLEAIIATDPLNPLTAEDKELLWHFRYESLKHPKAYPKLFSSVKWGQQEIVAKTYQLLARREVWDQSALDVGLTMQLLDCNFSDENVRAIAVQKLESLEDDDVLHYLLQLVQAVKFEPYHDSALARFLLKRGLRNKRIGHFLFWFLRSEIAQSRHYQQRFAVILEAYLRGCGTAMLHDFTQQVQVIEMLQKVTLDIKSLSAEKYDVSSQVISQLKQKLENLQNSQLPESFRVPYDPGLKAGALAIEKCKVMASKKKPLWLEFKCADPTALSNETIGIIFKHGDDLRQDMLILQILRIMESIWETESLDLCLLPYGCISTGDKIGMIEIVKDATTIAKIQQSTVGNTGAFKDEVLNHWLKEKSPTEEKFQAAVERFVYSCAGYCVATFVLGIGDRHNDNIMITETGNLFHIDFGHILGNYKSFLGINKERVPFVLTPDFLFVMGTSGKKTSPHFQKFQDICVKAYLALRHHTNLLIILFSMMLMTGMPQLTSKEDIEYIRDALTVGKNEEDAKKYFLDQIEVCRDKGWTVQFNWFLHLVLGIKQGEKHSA
Sequence of BTK (Q06187 whole entry): as the sequence (Q06187 whole entry C481S) above, with S481C counted along it

SMILES	IC50 (BRD4-1) [nM]	IC50 (BRD4-2) [nM]	IC50 (PI3K alpha) [nM]	IC50 (PI3K beta) [nM]	IC50 (PI3K gamma) [nM]	IC50 (CDK4 cyclinD1) [nM]	IC50 (CDK6 cyclinD1) [nM]	IC50 (BTK C481S) [nM]	IC50 (BTK) [nM]
CC(C)n1c(C(=O)N(C)C)cc2cnc(Nc3ccc(-c4csc5c(=O)cc(N6CCOCC6)oc45)cc3)nc21 [Compound 25]	< 500	< 500	< 500	< 500	1000 to 10000	< 500	< 500		
O=c1cc(N2CCNCC2)oc2c(-c3ccc4c(c3)OCCO4)csc12 [Compound 1]	< 500	10000 to 45000	> 45000	10000 to 45000	> 45000				
CN(C)C(=O)c1cc2cnc(Nc3cncc(-c4csc5c(=O)cc(N6CCOCC6)oc45)c3)nc2n1C1CCCC1 [Compound 19]	1000 to 10000	1000 to 10000	500 to 1000	< 500	1000 to 10000	< 500	< 500		
O=C(NCc1cccnc1)c1cc(-c2csc3c(=O)cc(N4CCOCC4)oc23)cc2c1OCCO2 [Compound 2]	< 500	< 500	< 500	< 500	< 500				
CN(C)C(=O)c1cc2cnc(Nc3ccc(-c4csc5c(=O)cc(N6CCOCC6)oc45)c(C(=O)O)c3)nc2n1C1CCCC1 [Compound 14]	> 45000	10000 to 45000	< 500	< 500	< 500	10000 to 45000	10000 to 45000		
C=CC(=O)Nc1cccc(-c2csc3c(=O)cc(N4CCNCC4)oc23)c1 [Compound 27]	500 to 1000		> 45000	> 45000	> 45000			10000 to 45000	
CN(C)C(=O)c1cc2cnc(Nc3ccc(-c4csc5c(=O)cc(N6CCNCC6)oc45)cc3)nc2n1C1CCCC1 [Compound 9]	< 500	500 to 1000	10000 to 45000	10000 to 45000	10000 to 45000	< 500	< 500		
N#C/C(=C\C1CC1)C(=O)Nc1cccc(-c2csc3c(=O)cc(N4CCOCC4)oc23)c1 [Compound 35]		500 to 1000	< 500	< 500				10000 to 45000	10000 to 45000
CN(C)C(=O)c1cc2cnc(Nc3ccc(-c4csc5c(=O)cc(N6CCOCC6)oc45)c(C(=O)NCCN)c3)nc2n1C1CCCC1 [Compound 22]	> 45000	1000 to 10000	500 to 1000	< 500	10000 to 45000	< 500	< 500		
O=C(NCc1cccnc1)c1cc(-c2csc3c(=O)cc(N4CCNCC4)oc23)cc2c1OCCO2 [Compound 3]	< 500	1000 to 10000	1000 to 10000	1000 to 10000	10000 to 45000				
CN(C)C(=O)c1cc2cnc(Nc3csc4c(=O)cc(N5CCOCC5)oc34)nc2n1C1CCCC1 [Compound 12]	10000 to 45000	10000 to 45000	1000 to 10000	< 500	> 45000	1000 to 10000	> 45000		
C=CC(=O)N1CCOc2ccc(-c3csc4c(=O)cc(N5CCN(C)CC5)oc34)cc21 [Compound 28]		10000 to 45000	10000 to 45000	1000 to 10000	> 45000				< 500
CN(C)C(=O)c1cc2cnc(N(c3cncc(-c4csc5c(=O)cc(N6CCOCC6)oc45)c3)c3ncc4cc(C(=O)N(C)C)n(C5CCCC5)c4n3)nc2n1C1CCCC1 [Compound 21]	1000 to 10000	1000 to 10000	1000 to 10000	1000 to 10000	10000 to 45000	< 500	500 to 1000		
CCCCC/C=C/C(=O)Nc1cccc(-c2csc3c(=O)cc(N4CCOCC4)oc23)c1 [Compound 34]		10000 to 45000		1000 to 10000	10000 to 45000			> 45000	> 45000
CN(C)C(=O)c1cc2cnc(Nc3ccc(-c4csc5c(=O)cc(N6CCOCC6)oc45)c(C(=O)O)c3)nc2n1C1CCCC1 [Compound 15]	10000 to 45000	10000 to 45000	< 500	< 500	1000 to 10000	1000 to 10000	500 to 1000		
CN1CCN(c2cc(=O)c3scc(-c4cc5c(c(C(=O)NCc6cccnc6)c4)OCCO5)c3o2)CC1 [Compound 4]	< 500	1000 to 10000	10000 to 45000	1000 to 10000	10000 to 45000				
CN(C)C(=O)c1cc2cnc(Nc3ccc(-c4csc5c(=O)cc(N6CCN(C(=O)OC(C)(C)C)CC6)oc45)cc3)nc2n1C1CCCC1 [Compound 10]	500 to 1000	1000 to 10000	1000 to 10000	500 to 1000	1000 to 10000	< 500	< 500		
CN(C)C(=O)c1cc2cnc(Nc3cc(C(=O)O)cc(-c4csc5c(=O)cc(N6CCOCC6)oc45)c3)nc2n1C1CCCC1 [Compound 20]	10000 to 45000	> 45000	1000 to 10000	1000 to 10000	> 45000	10000 to 45000	> 45000		
C=CC(=O)N1CCOc2ccc(-c3csc4c(=O)cc(N5CCNCC5)oc34)cc21 [Compound 26]	< 500		10000 to 45000	1000 to 10000	> 45000			10000 to 45000	< 500
C=CC(=O)N1CCOc2ccc(-c3csc4c(=O)cc(N5CCN(C(=O)OC(C)(C)C)CC5)oc34)cc21 [Compound 29]	500 to 1000		10000 to 45000	1000 to 10000	10000 to 45000			10000 to 45000	< 500
CN(C)C(=O)c1cc2cnc(Nc3cccc(-c4csc5c(=O)cc(N6CCOCC6)oc45)c3)nc2n1C1CCCC1 [Compound 18]	1000 to 10000	500 to 1000	500 to 1000	< 500	1000 to 10000	< 500	< 500		
COC(=O)c1cc(-c2csc3c(=O)cc(N4CCOCC4)oc23)ccc1Nc1ncc2cc(C(=O)N(C)C)n(C3CCCC3)c2n1 [Compound 11]	< 500	1000 to 10000	< 500	< 500	1000 to 10000	> 45000	> 45000		
CN(C)C(=O)c1cc2cnc(N3CCOc4cc(-c5csc6c(=O)cc(N7CCOCC7)oc56)ccc43)nc2n1C1CCCC1 [Compound 24]			< 500	< 500	1000 to 10000	> 45000			
O=C(O)c1cc2cnc(Nc3ccc(-c4csc5c(=O)cc(N6CCOCC6)oc45)cc3)nc2n1C1CCCC1 [Compound 23]	500 to 1000	1000 to 10000	< 500	< 500	< 500	< 500	< 500		
COC(=O)c1cc(-c2csc3c(=O)cc(N4CCN(C(=O)OC(C)(C)C)CC4)oc23)cc2c1OCCO2 [Compound 5]	< 500	> 45000	< 500	1000 to 10000	< 500				
O=C(C1=CCCC1)N1CCOc2ccc(-c3csc4c(=O)cc(N5CCOCC5)oc34)cc21 [Compound 41]									1000 to 10000
CN(C)C(=O)c1cc2cnc(Nc3ccc(-c4csc5c(=O)cc(N6CCOCC6)oc45)cc3C(=O)O)nc2n1C1CCCC1 [Compound 13]	500 to 1000	500 to 1000	< 500	< 500	500 to 1000	> 45000	> 45000		
CNC(=O)c1cc2cnc(Nc3ccc(C#Cc4csc5c(=O)cc(N6CCOCC6)oc45)cc3)nc2n1C1CCCC1 [Compound 17]	1000 to 10000	10000 to 45000	< 500	< 500	500 to 1000	< 500	< 500		
CNC(=O)c1cc2cnc(Nc3ccc(-c4csc5c(=O)cc(N6CCOCC6)oc45)cc3)nc2n1C1CCCC1 [Compound 16]	< 500	< 500	< 500	< 500	1000 to 10000	< 500	< 500		
CN(C)C(=O)c1cc2cnc(Nc3ccc(-c4csc5c(=O)cc(N6CCOCC6)oc45)cn3)nc2n1C1CCCC1 [Compound 8]	< 500	< 500	< 500	< 500	500 to 1000	< 500	< 500		
